# Reference: publication PMC4459685, “Design and characterization of a new peptide vector for short interfering RNA delivery” (Journal of Nanobiotechnology, 2015)
# T1: GL1 peptide (synthetic (designed))
# T1 chain: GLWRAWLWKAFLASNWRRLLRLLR
# Experiments:
# siRNA [1] = settings: cited from earlier work
# Source text: Here, an amphipathic, cationic peptide GL1 was designed and investigated. Structurally, GL1 has dispersed cationic amino acids along the sequence, which differs from the arginine rich peptide R9, R9-hLF, and Tat. The peptide MPG and MPG-like peptides consist of a hydrophobic domain and a hydrophilic domain which contributes to their amphipathic property; while PF6 and PF14 incorporated a stearyl moiety in their sequences to improve amphiphilicity. However, peptide GL1 has hydrophilic and hydrophobic amino acids dispersed along the sequence, which leads to its amphipathicity ...
# siRNA [2] = test: Isothermal titration calorimetry, titrating siRNA with GL1; type: binding
# Protocol: The isothermal titration calorimetry experiments were conducted using a Nano-ITC calorimeter (TA Instruments). A 500 μM GL1 peptide solution and a 10 μM siRNA solution were both prepared in RNase-free water. All of the samples were degassed in a degassing station (TA Instruments) prior to the experiments. RNase-free water was placed in the ITC reference cell. For each titration, 2 μl of the peptide in a pipette rotating at 250 rpm was injected into the siRNA solution in the sample cell of the calorimeter, which was equilibrated to 25°C, with an interval of 300 s between injections. The heat of dilution was measured by titrating the GL1 solution into RNase-free water and was later subtracted from the sample measurement. The data were analyzed using NanoAnalyze software v.3.1.2.
# The ability of GL1 to interact with siRNA was investigated by gel electrophoresis. Binding between peptide and siRNA prevented RNA from being stained by EtBr. […] At a slightly higher molar ratio 15/1, no free siNRA was detected on the agarose gel. […] This direct binding between cationic peptide and anionic siRNA would be initiated via electrostatic interactions. The formation of GL1-siRNA complexes and the thermodynamic parameters associated with the binding between peptide and siRNA was further investigated using isothermal titration calorimetry by titrating the siRNA with GL1. The heat exchange during the titration of siRNA by GL1 (in RNase-free water) was detected by the machine and output as raw data. By fitting the raw data (upper panel of Figure 2) to a single-site model (lower panel of Figure 2), the thermodynamic parameters during the interaction were obtained and listed in Table 1.
# Figure 2 Calorimetric titration of siRNA with GL1 at 25°C in RNasefree water at pH 6. a Corrected thermogram of calorimetric titration of siRNA with GL1. b Binding analysis of siRNA with GL1 by fitting the raw data with an independent model. GL1 concentration was 500 μM and siRNA concentration was 10 μM.
# CHO-K1 cells [3] = test: MTT cytotoxicity assay; type: cell-based, Chinese hamster; settings: siRNA 50 nM, 4 h Opti-MEM then 48 h, molar ratio 10/1
# Protocol: The cytotoxicity of peptide-siRNA complexes was determined by the MTT assay. In brief, cells were seeded at 5,000 cells/well in clear, flat-bottomed, 96-well plates (Costar) 24 h before treatment. After being washed, 100 μl of Opti-MEM that contained peptide-siRNA complexes at different molar ratios was added to the wells and incubated for 4 h. Thereafter, 50 μl of 30% serum containing medium was added, and the cytotoxicity of the relevant reagents was determined by the MTT assay after 48 h. The absorbance at 570 nm was read on a plate reader (FLUOstar OPTIMA, BMG, Germany). The background absorbance of the multiwell plates at 690 nm was determined and subtracted from the 570 nm measurement. The results obtained from triplicate wells were averaged and normalized to the value obtained from the non-treated cells.
# Figure 7 Cell viability results of CHO-K1 cells treated with naked Lipofectamine 2000 or GL1, and the complexes with siRNA (50 nM) at different molar ratios. NT non-treated, MR peptide/siRNA molar ratio, Lipo Lipofectamine 2000. Results are expressed as mean ± standard deviation (n = 3). *P value < 0.05, the cell viability after GL1 treatment is statistically significant than that after Lipo treatment.
# CHO-K1 cells [4] = test: FACS cellular uptake of Cy3-labeled GAPDH siRNA; type: cell-based, Chinese hamster; settings: Cy3-labeled GAPDH siRNA 100 nM, 4 h
# Protocol: The uptake of Cy3-labeled siRNA into the CHO-K1 cells was quantified with a BD FACSVantage SE Cell Sorter flow cytometry (BD Biosciences, United States). CHO-K1 cells were plated at a density of 50,000 cells per well and incubated for 24 h in a 24-well flat-bottom plate. The medium was replaced with GL1-siRNA complexes and control samples in OPTI-MEM (Invitrogen) or F12-K supplemented with 10% FBS with a siRNA concentration of 100 nM. After 4 h of incubation, the cells were rinsed with phosphate buffered saline (PBS) and washed with heparin (10 U/ml). After, trypsin–EDTA was added to detach the cells from the plate. The cells were re-suspended in 4% paraformaldehyde (PFA) and ready for quantitative analysis.
# Figure 5 a Fluorescence microscope image of GL1-siRNA complexes at molar ratio 40/1 (magnification 40×). The red fluorescence indicated Cy3 labeled siRNA, blue fluorescence represented DAPI stained nuclei. […] Non-treated sample was negative control; Lipo-siRNA complexes were positive control. Cy3 labeled GAPDH siRNA was used here. siRNA concentration was 100 nM in both experiments. NT non-treated, MR peptide/siRNA molar ratio, Lipo Lipofectamine 2000. Results are expressed as mean ± standard deviation (n = 3).
# eGFP siRNA = test: Agarose gel-shift assay of peptide-siRNA complex formation; type: binding; settings: 1.2% agarose gel, 300 ng eGFP siRNA
# Protocol: The GL1-siRNA complexes in RNase-free water were made with 300 ng of eGFP siRNA. The samples of siRNA alone and GL1-siRNA complexes at molar ratios (peptide/siRNA) ranging from 1/1 to 80/1 were electrophoresed on a 1.2% wt/vol agarose gel in 1× TBE at 55 V for 1 h. The ethidium bromide-stained siRNA was visualized on an ultraviolet transilluminator with a camera.
# Figure 1 Binding ability of siRNA to GL1 studied by agarose gel-shift assay The formed GL1-siRNA complexes, stained with ethidium bromide, were investigated by electrophoresis on agarose gel (1.2% wt/vol). siRNAs, targeting eGFP genes, were complexed with GL1 at a series of molar ratios from 1/1 to 80/1. Lane 1 was siRNA control, and lanes 2–8 indicated correlated molar ratios. The amount of siRNA was 300 ng.
# GL1 peptide = target: T1, GL1 peptide; test: EMSA (agarose gel shift, EtBr); peptide/siRNA molar ratios 1/1 to 80/1; no free siRNA at 15/1, strongly reduced at 10/1; 300 ng siRNA; ITC: RNase-free water, pH 6, 25 C, 500 uM GL1 into 10 uM siRNA; gel shift: 1.2% agarose, EtBr, 20 min incubation, buffer not given; settings: tags: N-terminal acetyl, C-terminal amide
# [5] = ITC, 500 μM GL1 titrated into 10 μM siRNA, RNase-free water pH 6, 25°C
molecule,measurement,setting,value
TP10,molar ratio required to encapsulate all the free siRNA,siRNA [1],50/1
Ac-GLWRAWLWKAFLASNWRRLLRLLR-NH2 [GL1],"n (molar stoichiometry, mol GL1 per mol siRNA)",siRNA [2]; [5],7.16
same,ΔH (enthalpy),siRNA [2]; [5],-4.472 kcal/mol
same,ΔS,siRNA [2]; [5],64.56 J/(mol K)
same,Kd,"siRNA [2]; ITC, 500 μM GL1 titrated into 10 μM siRNA, RNase-free water pH 6, 25°C, read-out: Kd (dissociation constant)",224 nM
same,ΔG,"siRNA [2]; calculated with ΔG = ΔH − TΔS, ITC at 25°C",-9.068 kcal/mol
same,toxicity,CHO-K1 cells [3],did not cause toxicity
same,cellular uptake of siRNA,"CHO-K1 cells [4]; F12-K with 10% FBS, molar ratio 20/1, mean n = 3",75%
same,cellular uptake of siRNA,"CHO-K1 cells [4]; F12-K with 10% FBS, molar ratio 40/1, mean n = 3",84%
same,cellular uptake of siRNA,"CHO-K1 cells [4]; OPTI-MEM without serum, molar ratio 20/1, mean n = 3",95%
same,cellular uptake of siRNA,"CHO-K1 cells [4]; OPTI-MEM without serum, molar ratio 40/1, mean n = 3",95%
same,cellular uptake of siRNA,"CHO-K1 cells [4]; in the presence of serum, molar ratio not stated at the place, mean n = 3",~ 84%
same,cellular uptake of siRNA,"CHO-K1 cells [4]; serum free, molar ratio not stated at the place, mean n = 3",~ 95%
same,minimal peptide/siRNA molar ratio for siRNA delivery / complex formation,eGFP siRNA,around 10/1
same,peptide/siRNA molar ratio at which no free siRNA is detected (all free siRNA encapsulated),"eGFP siRNA; ethidium bromide, molar ratios 1/1 to 80/1",15/1
eGFP siRNA (dsRNA) RNA 1: GACGUAAACGGCCACAAGUUC RNA 2: ACUUGUGGCCGUUUACGUCGC,binding result,GL1 peptide,binds
